This note sets out measurements from patent US11821042B2, “Targeting chromosomal instability and downstream cytosolic DNA signaling for cancer treatment” (Cornell University, priority 2017, dated 2023).

For the test, the system named is MDA-MB-231 cells. Nature of the test: In vitro invasion assay through collagen membrane (CytoSelect). In kind it is cell-based, human. Particulars: addition to MCAK (CIN-low) cells. The protocol:
For the invasion and migration/chemotaxis assays the CytoSelect cell invasion (CBA-110) and cell migration (CBA-100) kits, respectively, were used. Briefly, 3×10^5 cells were suspended in serum-free media and placed on top of the membrane. […] For the chemotaxis assay, we used a colorimetric approach (OD 560 nm) for quantification. For the scratch assay, cells were treated with mitomycin C (10 μgml^−1) for 1 hour when they reached >90% confluence and then placed in DMEM containing 1% FBS. Wounds were applied using p200 pipette tip and images of the wound were taken immediately and at subsequent regular intervals. ImageJ was used for quantification of wound surface area.

Turning to `Nc1nc2c(ncn2[C@@H]2O[C@@H]3COP(=O)(O)O[C@H]4[C@@H](O)[C@H](n5cnc6c(N)ncnc65)O[C@@H]4COP(=O)(O)O[C@@H]2[C@@H]3O)c(=O)[nH]1` [cGAMP, cyclic guanosine monophosphate-adenosine monophosphate], the “ability to migrate and invade through a collagen membrane” value is given as “increased”.
